Reference: US20240009137A1, “ORAL THERAPEUTIC DELIVERY” (ROYAL MELBOURNE INSTITUTE OF TECHNOLOGY, priority 2020, published 2024)
Values joined by “and” are separate entries in the source; they are usually repeats but may differ in a detail not shown here. Equal values may be shown once.

Legend:
[1] = test system: blood glucose of diabetic Sprague Dawley rats; test: Blood glucose levels in STZ-induced diabetic rats after insulin by SC injection or oral capsule; type: in vivo; details: for time over which BG levels continued to decrease: 1 IU SC injection; for Percentage of SC injection (%), efficacy of oral delivery: MO cubic phase
Procedure: 14 Sprague Dawley rats were used in this trial. One week before each phase started, all rats were given isoflurane until unconscious. Each rat was then injected intravenously in the tail with 60 mg/kg of streptozotocin (STZ) in a sodium citrate buffer. All rats were then housed in pairs and blood glucose was monitored 3 times per day over 48 hours. The induction of diabetes was confirmed when the blood glucose level was >14 mmol/L in the morning.
The rats were then housed in pairs in two boxes. Blood collection was taken at 5-, 360-, and 1440-minutes post-injection, and the BG level tested at each time point.
(§1) Four Sprague Dawley rats were used in Phase 1 and four in Phase 2. Each was initially given isoflurane until unconscious. This was followed by preparation of the saphenous vein and the baseline basal BG was tested. […] Blood collection (10 μl) was taken at 15-, 30-, 60-, 120-, and 360-minutes post-injection. BG testing was performed immediately at each time point using an Accu Chek BG monitor and strips.
as §1, with “at” for “at 15-,”, “120-, 360-,” for “120-,”, “465-minutes” for “360-minutes”, “strips. One rat didn't develop diabetes and one rat had kidney problems. In each case, the AWO (Animal Welfare Officer) was consulted and both rats were removed from the trial.” for “strips.”
Four Sprague Dawley rats were used in this part of the trial. Each was initially given isoflurane until unconscious. This was followed by preparation of the saphenous vein and the first blood collection (10 μl) and BG testing. […] Blood collection (10 μl) was taken at 75-, 120-, 180-, 240-, 300- and 360- minutes, and BG testing was performed at each time point using an Accu Chek BG monitor and strips.
(§2) Two Sprague Dawley rats were used in this part of the trial. Each was initially given isoflurane until unconscious. This was followed by preparation of the saphenous vein and the first blood collection (10 μl) and BG testing. […] Immediately following this they were placed on a heat-mat until they regained consciousness, before being housed in pairs in boxes. Blood collection (10 μl) was taken at 105-, 135-, 165-, 210-, 345- and 460- minutes, and BG testing was performed at each time point using an Accu Chek BG monitor and strips.
as §2, with “Four” for “Two”, “45-, 75-, 120-, 160-, 220-, 260-, 300-” for “105-, 135-, 165-, 210-, 345-”, “360-” for “460-”
as §2, with “30-, 60-, 80-, 125-, 180-, 280-, 340-, 400-” for “105-, 135-, 165-, 210-, 345-”

[2] = Vancomycin in blood plasma (ELISA) after SC injection or oral capsule; type: in vivo, Sprague Dawley rats
Procedure: (§3) Four male Sprague Dawley rats were used as controls. Each rat was anaesthetised with isoflurane followed by preparation of the saphenous vein. The rats were given 15 mg/kg of vancomycin via SC injection, immediately following this they were placed on a heat-mat until they regained consciousness, before being housed in pairs in boxes. Blood collection (150 μl) was taken via the saphenous vein at 0, 30-, 70-, 120-, 180-, 240- and 360-mins post-injection. The blood concentration of the protein in the blood was tested using the relevant ELISA kit for each of the proteins.
(§4) Eight male Sprague Dawley rats were used. Each rat was anaesthetised with isoflurane followed by preparation of the saphenous vein and the first blood collection (150 μl). An enteric capsule with a thick polymer coating of approximately 160 μm containing 15 mg/kg of vancomycin encapsulated in MO lipid cubic phase was then introduced via oral gavage into the rat stomach. Immediately following this they were placed on a heat-mat until they regained consciousness, before being housed in pairs. Blood collection (150 μl) was taken via the saphenous vein at 0, 35-, 50-, 120-, 180-, 240- and 360-mins post-injection.
(§5) All data are analysed on a Clariostar Plate Reader to determine concentration against a standard curve for the relevant drug.
(§6) Concentrations provided in FIGS. 10-13 are the measured concentration of the drug in the blood plasma (determined using specific Elisa kits) and are in units of ng/ml. The initial drug concentration measured at the 0 time point has been set to zero in each case and other data scaled relative to this.

[3] = Fluorescence recovery after photobleaching (FRAP), diffusion coefficient; type: physicochemical
Procedure: FRAP was performed on a Nikon confocal microscope. […] A bleaching and background region of interest (ROI) was used to selectively photobleach an area of the cubic phase and the fluorescence recovery curve was recorded with time. The excitation/emission wavelengths used were 553/627 nm for the octadecyl rhodamine B chloride. […] […] The open source Matlab code frap_analysis_2p5 was used to determine diffusion coefficients μ from FRAP data.

[4] = Human growth hormone in blood plasma (ELISA) after SC injection or oral capsule; type: in vivo, Sprague Dawley rats
Procedure: as §3, with “given 1” for “given 15”, “of human growth hormone” for “of vancomycin”, “for human growth hormone.” for “for each of the proteins.”
as §4, with “containing 1” for “containing 15”, “of the human growth hormone” for “of vancomycin”, “50-, 120-,180-,” for “50-, 120-, 180-,”, “360-mins post-injection” for “360-mins post-injection.”
as §5, §6

[5] = in vivo; design: species or system Sprague Dawley rats; details: male, Sprague-Dawley, rat, 1 mg/kg
Procedure: as §3, with “given 1” for “given 15”, “of meropenem” for “of vancomycin”, “for meropenem.” for “for each of the proteins.”
as §4, with “containing 1” for “containing 15”, “of meropenem” for “of vancomycin”
as §5, §6

[6] = measured using NMR in a previous study; cited from earlier work
[7] = 1 IU oral, MO cubic phase in enteric capsule T=3, Phase 1, Rats 2-4
[8] = oral enteric capsule, MO cubic phase, 15 mg/kg
[9] = oral enteric capsule vs SC, 1 mg/kg
[10] = oral enteric capsule, MO cubic phase, 1 mg/kg

Molecule: Actrapid insulin: fast acting insulin (Actrapid, Novo Nordisk), given SC or in MO cubic phase within enteric capsule
- time over which BG levels continued to decrease ([1]; Phase 1): approximately 110 mins
- time over which BG levels continued to decrease ([1]; Phase 2): approximately 120 mins
- lead time: BG levels continued to increase after oral administration ([1]; 1 IU oral, MO cubic phase in enteric capsule T=1, Phase 2, Rats 5-8): approximately 60 mins
- overall decrease in BG ([1]; 1 IU oral, MO cubic phase in enteric capsule T=1, Phase 2, individual Rats 5, 6, 7, 8 in this order): 6.2 mmol/L and 8.7 mmol/L and 11.4 mmol/L and 4.6 mmol/L
- lead time: BG levels continued to increase after oral administration [1, 7]: 100 to 110 min
- time period over which BG levels decreased [1, 7]: 70 to 180 min
- overall decrease in BG ([1]; 1 IU oral, MO cubic phase in enteric capsule T=3, Phase 1, individual Rats 2, 3, 4 in this order): 3.6 mmol/L and 3.1 mmol/L and 3.4 mmol/L
- time BG levels remained below 14 mmol/L ([1]; 15 IU by SC injection, pre-trial period, diabetic rats): approximately 450 minutes
- response of blood glucose to oral administration ([1]; Rat 1, perforated enterically coated capsule shell with lipid cubic phase, 1 IU, Phase 1 (comparative)): not pronounced
- Percentage of SC injection (%) ([1]; SC injection, 1 IU (reference)): 100%
- Percentage of SC injection (%), efficacy of oral delivery ([1]; oral capsule T = 1 (thinner coating), 1 IU, listed as Fast Acting Insulin): 93.1%
- Percentage of SC injection (%), efficacy of oral delivery ([1]; oral capsule T = 1 (thinner coating), 1 IU, listed as fast-acting insulin): 93%
- Percentage of SC injection (%), efficacy of oral delivery ([1]; oral capsule T = 3 (thicker coating), 1 IU, listed as Fast Acting Insulin): 56.1%
- Percentage of SC injection (%), efficacy of oral delivery ([1]; oral capsule T = 3 (thicker coating), 1 IU, listed as fast-acting insulin): 56%

Molecule: CN[C@H](CC(C)C)C(=O)N[C@H]1C(=O)N[C@@H](CC(N)=O)C(=O)N[C@H]2C(=O)N[C@H]3C(=O)N[C@H](C(=O)N[C@H](C(=O)O)c4cc(O)cc(O)c4-c4cc3ccc4O)[C@H](O)c3ccc(c(Cl)c3)Oc3cc2cc(c3O[C@@H]2O[C@H](CO)[C@@H](O)[C@H](O)[C@H]2O[C@H]2C[C@](C)(N)[C@H](O)[C@H](C)O2)Oc2ccc(cc2Cl)[C@H]1O [vancomycin]
- time by which baseline values are reached ([2]; SC injection 15 mg/kg): ≤ 180 min
- time of maximum plasma concentration ([2]; SC injection 15 mg/kg): 30 min
- maximum drug concentration in blood plasma ([2]; SC injection 15 mg/kg, four rats): approximately 1500 ng/ml
- bioavailability ([2]; male, Sprague-Dawley, rat, plasma, oral enteric capsule vs SC, 15 mg/kg, read-out: overall bioavailability as % of that following SC injection): 73.9%
- maximum drug concentration in blood plasma ([2]; oral enteric capsule (approx. 160 μm coating), MO cubic phase, 15 mg/kg, range over rats): 790 to 960 ng/mL
- maximum drug plasma concentration as % of that following SC injection ([2]; oral enteric capsule vs SC, 15 mg/kg): 57%
- time by which baseline drug concentrations are reached [2, 8]: ≤ 180 min
- time of maximum plasma concentration [2, 8]: 50 min

Molecule: CCCCCCCCCCCCCCCCCCOC(=O)c1ccccc1-c1c2ccc(=[N+](CC)CC)cc-2oc2cc(N(CC)CC)ccc12.[Cl-] [Octadecyl rhodamine B chloride, octadecyl rhodamine B chloride]
- Diffusion Coefficient ([3]; in MO QII^D bulk cubic phase (insulin: FITC labelled, 5 mg/ml)): 0.97 ×10^−6 cm^2 s^−1
- Diffusion Coefficient ([3]; in PT QII^D bulk cubic phase (insulin: FITC labelled, 5 mg/ml)): 0.59 ×10^−6 cm^2 s^−1

Molecule: human growth hormone: Human Growth Hormone (MyBioSource), given SC or in MO cubic phase within enteric capsule
- time at which total amount of protein delivered (AUC) reaches a plateau ([4]; SC injection 1 mg/kg): approximately 180 min
- time by which baseline drug concentrations are reached ([4]; SC injection 1 mg/kg): ≤ 300 min
- time of maximum plasma concentration ([4]; SC injection 1 mg/kg): 60 min
- maximum drug concentration in blood plasma ([4]; SC injection 1 mg/kg, range over four rats): 20 to 32 ng/mL
- maximum drug concentration in blood plasma ([4]; oral enteric capsule (approx. 160 μm coating), MO cubic phase, 1 mg/kg, range over rats): 19 to 24 ng/mL
- maximum drug plasma concentration as % of that following SC injection [4, 9]: 81%
- overall bioavailability as % of that following SC injection [4, 9]: 87.2%
- lag period before total protein delivered starts to increase [4, 10]: 30 min
- time at which total protein delivered (AUC) reaches a plateau [4, 10]: around 240 mins
- time by which baseline drug concentrations are reached [4, 10]: ≤ 240 min
- time of maximum plasma concentration [4, 10]: 50 min

Molecule: C[C@@H](O)[C@H]1C(=O)N2C(C(=O)O)=C(S[C@@H]3CN[C@H](C(=O)N(C)C)C3)[C@H](C)[C@H]12 [meropenem]
- bioavailability [5]: 58%
- maximum drug plasma concentration as % of that following SC injection [5]: 55%
- maximum drug concentration in blood plasma ([5]; po): 19 to 23 ng/mL
- time by which baseline drug concentrations are reached ([5]; po): ≤ 180 min
- time of maximum plasma concentration ([5]; po): 50 min
- maximum drug concentration in blood plasma ([5]; sc): 37 to 40 ng/mL
- time by which baseline values are reached ([5]; sc): ≤ 240 min
- time of maximum plasma concentration ([5]; sc): 30 min

Molecule: CC(C)CCCC(C)CCCC(C)CCCC(C)(O)C(O)CO (centres unmarked) [PT, phytantriol]
- lipid self-diffusion coefficient [6]: 0.3 ×10^−6 cm^2 s^−1
